US10519098B2, “Aromatic derivatives as anti-malarial” (Council of Scientific & Industrial Research, priority 2014, dated 2019)
Read-outs that look alike come from different tables or passages of the source.

Assays:
[1] = tested on: Chloroquine-sensitive (3D7) strain of P. falciparum; test: Malaria SYBR Green I-based fluorescence (MSF) assay, 3D7 strain; assay type: cell-based; details: Plasmodium falciparum
Method: (§1) The stock (5 mg/mL or 10 mM) solutions of extracts were prepared in DMSO and required dilutions were made in culture medium.
(§2) Two-fold serial dilutions of test samples were made in 96 well plates and incubated with 1.0% parasitized cell suspension containing 0.8% parasitaemia (Asynchronous culture with more than 80% ring stages). The plates were incubated at 37° C. in CO2 incubator in an atmosphere of 5% CO2 and air mixture. 72 hours later 100 μL of lysis buffer containing 2× concentration of SYBR Green-I (Invitrogen) was added to each well and incubated for one hour at 37° C. The plates were examined at 485±20 nm of excitation and 530±20 nm of emission for relative fluorescence units (RFUs) per well using the fluorescence plate reader (FLX800, BIOTEK). IC50 values were obtained by Logit regression analysis of dose response curves (Singh et al. 2011).

in vitro = details: monkey
Method: (§3) The cells were incubated with test sample dilutions for 72 h and MTT was used as reagent for detection of cytotoxicity. Podophyllotoxin (SIGMA) was used as the standard reference drug.

[2] = tested on: Chloroquine-resistant (K1) strain of P. falciparum; test: Malaria SYBR Green I-based fluorescence (MSF) assay, K1 strain; assay type: cell-based; details: Plasmodium falciparum
Method: as §1, §2

[3] = tested on: Vero cell line (C1008; Monkey kidney fibroblast); test: in vitro; details: 72 h
Method: as §3

[4] = 3D7, range given for listed compounds, read-out: IC50 values against 3D7 culture
[5] = P. falciparum 3D7, 72 hours incubation, read-out: IC50 against 3D7
[6] = K1, range given for listed compounds, read-out: IC50 values against K1 culture
[7] = P. falciparum K1, 72 hours incubation, read-out: IC50 against K1

IC50 [1, 4] [µM] | IC50 [1, 5] [µM] | melting point [°C] | IC50 [2, 6] [µM] | IC50 [2, 7] [µM] | SMILES | CC50 at 72 h (in vitro) [µM] | CC50 [3] [µM]
2 to 7 | 6.69 | 126 to 128 | 1.5 to 4 | 3.64 | COc1cc([C@@H](CNC(=O)/C=C/c2ccccc2)OC(=O)/C=C/c2ccccc2)cc(OC)c1OC [Compound 5, (S)-2-cinnamamido-1-(3,4,5-trimethoxyphenyl)ethyl cinnamate] | 66.7 | 
 | > 5 | 112 to 114 |  | > 5 | COc1ccccc1[C@@H](CNC(=O)/C=C/c1ccccc1)OC(=O)/C=C/c1ccccc1 [Compound 9, (S)-2-cinnamamido-1-(2-methoxyphenyl)ethyl cinnamate] | 77.8 | 
 | > 5 | 105 to 107 |  | > 5 | COc1cccc([C@H](CNC(=O)/C=C/c2ccccc2)OC(=O)/C=C/c2ccccc2)c1OC [Compound 22, (R)-2-cinnamamido-1-(2,3-dimethoxyphenyl)ethyl cinnamate] | 194 | 
 | 3.85 | 181 to 183 |  | > 10 | O=C(/C=C/c1ccccc1)NC[C@@H](OC(=O)/C=C/c1ccccc1)c1ccccc1 [Compound 25, (S)-2-cinnamamido-1-phenylethyl cinnamate] | 31.7 | 
 | 4.72 | 183 to 185 |  | > 10 | O=C(/C=C/c1ccccc1)NC[C@H](OC(=O)/C=C/c1ccccc1)c1ccccc1 [Compound 26, (R)-2-cinnamamido-1-phenylethyl cinnamate] | 63.9 | 
 | 6.77 | 139 to 140 |  | > 10 | Cc1ccc([C@@H](CNC(=O)/C=C/c2ccccc2)OC(=O)/C=C/c2ccccc2)cc1 [Compound 29, (S)-2-cinnamamido-1-(p-tolyl) ethyl cinnamate] | 141 | 
 | 6.97 | 139 to 141 |  | > 10 | Cc1ccc([C@H](CNC(=O)/C=C/c2ccccc2)OC(=O)/C=C/c2ccccc2)cc1 [Compound 30, (R)-2-cinnamamido-1-(p-tolyl) ethyl cinnamate] | 49.4 | 
 | > 5 | 103 to 105 |  | > 5 | Cc1ccc([C@@H](COC(=O)/C=C/c2ccccc2)OC(=O)/C=C/c2ccccc2)cc1 [Compound 31, (S)-1-(p-tolyl) ethane-1,2-diyl (2E,2′E)-bis(3-phenylacrylate)] | > 200 | 
 | > 5 | 186 to 190 |  | > 5 | O=C(/C=C/c1ccccc1)NC[C@@H](OC(=O)/C=C/c1ccccc1)c1ccc2c(c1)OCO2 [Compound 33, (S)-1-(benzo[d][1,3]dioxol-5-yl)-2-cinnamamidoethyl cinnamate] | 190 | 
 | > 5 | 106 to 107 |  |  | O=C(/C=C/c1ccccc1)OC[C@@H](OC(=O)/C=C/c1ccccc1)c1ccc2c(c1)OCO2 [Compound 35, (S)-1-(benzo[d][1,3]dioxol-5-yl)ethane-1,2-diyl(2E,2′E)-bis(3-phenyl acrylate)] | 31.8 | 
 | > 5 | 108 to 110 |  |  | O=C(/C=C/c1ccccc1)OC[C@H](OC(=O)/C=C/c1ccccc1)c1ccc2c(c1)OCO2 [Compound 36, (R)-1-(benzo[d][1,3]dioxol-5-yl)ethane-1,2-diyl(2E,2′E)-bis(3-phenyl acrylate)] | 56.6 | 
 | 6.67 | 129 to 131 |  | > 10 | COc1ccc([C@@H](CNC(=O)c2ccccc2)OC(=O)c2ccccc2)cc1OC [Compound 39, (S)-2-benzamido-1-(3,4-dimethoxyphenyl) ethyl benzoate] | 8.16 | 
 | 3.66 | 128 to 130 |  | > 10 | COc1ccc([C@H](CNC(=O)c2ccccc2)OC(=O)c2ccccc2)cc1OC [Compound 40, (R)-2-benzamido-1-(3,4-dimethoxyphenyl) ethyl benzoate] | 104 | 
 | 2.86 | 82 to 84 |  | > 10 | COc1ccc([C@@H](CNC(=O)CCc2ccccc2)OC(=O)CCc2ccccc2)cc1OC [Compound 43, (S)-1-(3,4-dimethoxyphenyl)-2-(3-phenylpropanamido)ethyl 3-phenyl propanoate] | 39.3 | 
 | 5.86 | 77 to 78 |  | > 10 | COc1ccc([C@H](CNC(=O)CCc2ccccc2)OC(=O)CCc2ccccc2)cc1OC [Compound 44, (R)-1-(3,4-dimethoxyphenyl)-2-(3-phenylpropanamido)ethyl 3-phenyl propanoate] | 73.2 | 
 | > 10 | 101 to 103 |  | > 10 | COc1ccc([C@@H](CNC(=O)/C=C/c2ccccc2)OC(=O)CCc2ccccc2)cc1OC [Compound 49, (S)-2-cinnamamido-1-(3,4-dimethoxyphenyl)ethyl 3-phenylpropanoate] |  | 36.9
 | > 10 | 112 to 114 |  | > 10 | COc1ccc([C@@H](CNC(=O)CCc2ccccc2)OC(=O)/C=C/c2ccccc2)cc1OC [Compound 50, (S)-1-(3,4-dimethoxyphenyl)-2-(3-phenylpropanamido)ethylcinnamate] |  | 44.3
 | > 10 | 93 to 94 |  | > 10 | CCCC(=O)NC[C@@H](OC(=O)/C=C/c1ccccc1)c1ccc(OC)c(OC)c1 [Compound 51, (S)-2-butyramido-1-(3,4-dimethoxyphenyl)ethyl cinnamate] |  | 42.4
 | > 10 |  |  | > 10 | CCCC(=O)O[C@H](CNC(=O)/C=C/c1ccccc1)c1ccc(OC)c(OC)c1 [Compound 52, (S)-2-cinnamamido-1-(3,4-dimethoxyphenyl)ethyl butyrate] |  | 29.9
 | > 10 | 117 to 120 |  | > 10 | COc1ccc([C@@H](COC(=O)/C=C/c2ccccc2)NC(=O)/C=C/c2ccccc2)cc1OC [Compound 55, (S)-2-cinnamamido-2-(3,4-dimethoxyphenyl)ethyl cinnamate] | 55.6 | 
2 to 7 | 6.29 | 61 to 62 | 1.5 to 4 | 2.23 | COc1cc(/C=C/C(=O)OC[C@@H](OC(=O)/C=C/c2cc(OC)c(OC)c(OC)c2)c2cc(OC)c(OC)c(OC)c2)cc(OC)c1OC [Compound 57, (S)-1-(3,4,5-trimethoxyphenyl)ethane-1,2-diyl(2E,2′E)-bis(3-(3,4,5-trimethoxyphenyl)acrylate)] | 47.4 | 

SMILES | IC50 [1, 4] [µM] | IC50 [1, 5] [µM] | melting point [°C] | IC50 [2, 6] [µM] | IC50 [2, 7] [µM] | CC50 at 72 h (in vitro) [µM] | CC50 [3] [µM]
COc1ccc([C@@H](CNC(=O)/C=C/c2ccc(O[Si](C)(C)C(C)(C)C)cc2)OC(=O)/C=C/c2ccc(O[Si](C)(C)C(C)(C)C)cc2)cc1OC [Compound 48, (S)-2-((E)-3-(4-((tert-butyldimethylsilyl)oxy)phenyl)acrylamido)-1-(3,4-dimethoxyphenyl)ethyl (E)-3-(4-((tert-butyldimethylsilyl)oxy)phenyl)acrylate] |  | 7.92 | 63 to 65 |  | 3.37 | 40.8 | 
